Reference: US11535611B2, “Pyrazolo[3,4-B]pyridines and imidazo[1,5-B]pyridazines as PDE1 inhibitors” (H. Lundbeck A/S, priority 2017, dated 2022)

Experiments:
Type in all cases: biochemical
PDE1A = PDE1A (Homo sapiens (Human), UniProt P54750); experiment: PDE1 inhibition assay, PDE1A; settings: for inhibition at 10 µM: @ 10 μM compound; for IC50: 15 nM tritium labelled cAMP, 1 hr at room temperature, SPA beads; for inhibition at 1 µM: @ 1 μM compound
Experimental: (§1) PDE1A, PDE1B and PDE1C assays were performed as follows: the assays were performed in 60 μL samples containing a fixed amount of the PDE1 enzyme (sufficient to convert 20-25% of the cyclic nucleotide substrate), a buffer (50 mM HEPES (4-(2-hydroxyethyl)-1-piperazineethanesulfonic acid) pH 7.6; 10 mM MgCl2; 0.02% Tween20), 0.1 mg/ml BSA (bovine serum albumin), 15 nM tritium labelled cAMP and varying amounts of inhibitors. Reactions were initiated by addition of the cyclic nucleotide substrate, and reactions were allowed to proceed for 1 hr at room temperature before being terminated through mixing with 20 μL (0.2 mg) yttrium silicate SPA beads (PerkinElmer). The beads were allowed to settle for 1 hour in the dark before the plates were counted in a Wallac 1450 Microbeta counter. The measured signals were converted to activity relative to an uninhibited control (100%) and IC50 values were calculated using XIFit (model 205, IDBS).

PDE1B = PDE1B (Homo sapiens (Human), UniProt Q01064); experiment: PDE1 inhibition assay, PDE1B; settings: for IC50: 15 nM tritium labelled cAMP, 1 hr at room temperature, SPA beads, read-out: PDE1 B, IC50
Sequence of PDE1B (Q01064 whole entry): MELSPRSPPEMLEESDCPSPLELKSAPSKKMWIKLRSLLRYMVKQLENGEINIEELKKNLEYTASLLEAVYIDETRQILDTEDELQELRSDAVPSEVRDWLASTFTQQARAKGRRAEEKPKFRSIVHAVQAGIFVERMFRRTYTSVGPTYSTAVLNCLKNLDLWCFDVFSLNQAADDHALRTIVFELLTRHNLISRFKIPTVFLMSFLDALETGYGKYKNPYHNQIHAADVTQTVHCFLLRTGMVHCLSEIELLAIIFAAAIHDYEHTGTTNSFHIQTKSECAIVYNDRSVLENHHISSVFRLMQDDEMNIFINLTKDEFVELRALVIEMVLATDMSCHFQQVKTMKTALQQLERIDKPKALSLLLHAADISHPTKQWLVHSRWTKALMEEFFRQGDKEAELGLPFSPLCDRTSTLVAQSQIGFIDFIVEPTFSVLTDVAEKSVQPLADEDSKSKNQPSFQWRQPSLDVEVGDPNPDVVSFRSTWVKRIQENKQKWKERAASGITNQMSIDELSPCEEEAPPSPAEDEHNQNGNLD
Experimental: as §1

PDE1C = PDE1C (Homo sapiens (Human), UniProt Q14123); experiment: PDE1 inhibition assay, PDE1C; settings: for inhibition at 10 µM: @ 10 μM compound, read-out: PDE1 C, % inhibition @ 10 μM; for IC50: 15 nM tritium labelled cAMP, 1 hr at room temperature, SPA beads, read-out: PDE1 C, IC50; for inhibition at 1 µM: @ 1 μM compound, read-out: PDE1 C, % inhibition @ 1 μM
Sequence of PDE1C (Q14123 whole entry): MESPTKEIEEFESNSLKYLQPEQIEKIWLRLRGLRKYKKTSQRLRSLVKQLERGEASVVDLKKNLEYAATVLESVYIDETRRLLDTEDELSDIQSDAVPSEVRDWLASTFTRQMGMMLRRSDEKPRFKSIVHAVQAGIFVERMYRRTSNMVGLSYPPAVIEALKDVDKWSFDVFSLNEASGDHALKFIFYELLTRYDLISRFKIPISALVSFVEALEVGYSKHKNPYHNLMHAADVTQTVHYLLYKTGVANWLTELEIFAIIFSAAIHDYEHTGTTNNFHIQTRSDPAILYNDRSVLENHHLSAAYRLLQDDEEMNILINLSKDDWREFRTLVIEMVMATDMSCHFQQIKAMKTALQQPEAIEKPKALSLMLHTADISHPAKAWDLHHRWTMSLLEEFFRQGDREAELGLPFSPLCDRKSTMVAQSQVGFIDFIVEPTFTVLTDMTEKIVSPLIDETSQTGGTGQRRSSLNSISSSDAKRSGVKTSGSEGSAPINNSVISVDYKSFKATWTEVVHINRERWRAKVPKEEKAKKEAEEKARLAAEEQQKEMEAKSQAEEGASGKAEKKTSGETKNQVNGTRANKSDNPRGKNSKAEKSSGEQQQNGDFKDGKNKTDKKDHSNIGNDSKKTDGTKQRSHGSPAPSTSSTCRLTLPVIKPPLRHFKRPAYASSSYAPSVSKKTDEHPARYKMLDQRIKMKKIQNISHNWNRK
Experimental: as §1

Sequence of PDE1A (P54750 whole entry): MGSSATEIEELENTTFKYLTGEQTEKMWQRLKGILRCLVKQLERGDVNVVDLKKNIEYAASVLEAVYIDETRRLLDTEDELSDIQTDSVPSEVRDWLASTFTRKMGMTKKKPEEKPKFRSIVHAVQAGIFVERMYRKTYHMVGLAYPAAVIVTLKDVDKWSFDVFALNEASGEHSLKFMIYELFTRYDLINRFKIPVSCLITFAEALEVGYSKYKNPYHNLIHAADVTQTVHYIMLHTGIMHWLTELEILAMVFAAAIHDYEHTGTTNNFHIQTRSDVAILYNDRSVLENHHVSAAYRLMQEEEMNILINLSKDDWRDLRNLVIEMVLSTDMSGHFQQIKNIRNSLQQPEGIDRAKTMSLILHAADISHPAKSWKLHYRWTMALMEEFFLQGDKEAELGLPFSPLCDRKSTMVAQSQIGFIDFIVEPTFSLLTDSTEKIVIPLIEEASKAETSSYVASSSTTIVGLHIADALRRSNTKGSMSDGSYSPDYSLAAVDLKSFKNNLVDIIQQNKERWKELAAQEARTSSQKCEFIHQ

Row | inhibition at 10 µM (PDE1A) | inhibition at 10 µM (PDE1B; @ 10 μM compound, read-out: PDE1 B, % inhibition @ 10 μM) | inhibition at 10 µM (PDE1C) | IC50 (PDE1A) | IC50 (PDE1B) | IC50 (PDE1C) | inhibition at 1 µM (PDE1A) | inhibition at 1 µM (PDE1C) | Structure (SMILES)
1 | 29% | 54% | 28% |  |  |  |  |  | CCOc1ncccc1-c1ccn2c(C(C)(C)C)nc(C)c2n1 [Example 82, 6-tert-butyl-2-(2-ethoxy-3-pyridyl)-8-methyl-imidazo[1,5-a]pyrimidine]
2 |  |  |  | 327 nM | 177 nM | 703 nM |  |  | CCCn1ncc2nc(-c3cccnc3OCC)cc(N[C@@H]3CCOC3)c21 (single isomer, unassigned) [Example 24, 5-(2-ethoxy-3-pyridyl)-1-propyl-N-[tetrahydrofuran-3-yl]pyrazolo[4,3-b]pyridin-7-amine]
3 | 52% |  | 31% |  | 2190 nM |  |  |  | COCc1ncccc1-c1cc(N[C@@H]2CCOC2)c2c(cnn2C(C)C)n1 [Example 58, 1-isopropyl-5-[2-(methoxymethyl)-3-pyridyl]-N-[(3R)-tetrahydrofuran-3-yl]pyrazolo[4,3-b]pyridin-7-amine]
4 |  |  |  | 874 nM | 303 nM | 506 nM |  |  | COc1ccc(Cc2cc(N[C@@H]3CCOC3)c3c(cnn3C(C)C)n2)cc1 [Example 57, 1-isopropyl-5-[(4-methoxyphenyl)methyl]-N-[(3R)-tetrahydrofuran-3-yl]pyrazolo[4,3-b]pyridin-7-amine]
5 |  |  |  | 225 nM | 122 nM | 198 nM |  |  | Cc1cc2c(nc1-c1ccccc1)c(C)nn2C(C)C [Example 60, 1-isopropyl-3,6-dimethyl-5-phenyl-pyrazolo[4,3-b]pyridine]
6 |  |  |  | 52 nM | 26 nM | 180 nM |  |  | CCOc1ncccc1-c1ccc2c(n1)c(C)nn2C(C)C [Example 59, 5-(2-ethoxy-3-pyridyl)-1-isopropyl-3-methyl-pyrazolo[4,3-b]pyridine]
7 |  |  |  | 1520 nM | 599 nM | 1550 nM |  |  | COc1cncc(-c2cc(N[C@@H]3CCOC3)c3c(cnn3C(C)C)n2)c1 [Example 47, 1-isopropyl-5-(5-methoxy-3-pyridyl)-N-[(3R)-tetrahydrofuran-3-yl]pyrazolo[4,3-b]pyridin-7-amine]
8 |  |  |  | 288 nM | 84 nM | 236 nM |  |  | COc1ncccc1-c1nc2c(C)nn(C(C)C)c2cc1C [Example 61, 1-isopropyl-5-(2-methoxy-3-pyridyl)-3,6-dimethyl-pyrazolo[4,3-b]pyridine]
9 | 61% |  | 59% |  | 1890 nM |  |  |  | Cc1cccnc1-c1cc(N[C@@H]2CCOC2)c2c(cnn2C(C)C)n1 [Example 39, 1-isopropyl-5-(3-methyl-2-pyridyl)-N-[(3R)-tetrahydrofuran-3-yl]pyrazolo[4,3-b]pyridin-7-amine]
10 |  |  | 65% | 2160 nM | 648 nM |  |  |  | CC(C)n1ncc2nc(-c3cccnc3)cc(N[C@@H]3CCOC3)c21 [Example 25, 1-isopropyl-5-(3-pyridyl)-N-[(3R)-tetrahydrofuran-3-yl]pyrazolo[4,3-b]pyridin-7-amine]
11 |  |  |  | 1030 nM | 85 nM | 1060 nM |  |  | CCOc1ncccc1-c1cc(NC)c2c(cnn2C(C)C)n1 [Example 13, 5-(2-ethoxy-3-pyridyl)-1-isopropyl-N-methyl-pyrazolo[4,3-b]pyridin-7-amine]
12 |  |  |  |  | 536 nM |  | 23% | 56% | CCOc1ncccc1-c1cc(N2CC[C@@H](OC)C2)c2c(cnn2C)n1 [Example 85, 5-(2-ethoxy-3-pyridyl)-7-[(3R)-3-methoxypyrrolidin-1-yl]-1-methyl-pyrazolo[4,3-b]pyridine]
13 |  |  |  | 694 nM | 159 nM | 568 nM |  |  | COc1ccccc1-c1nc2c(C)nn(C(C)C)c2cc1C [Example 62, 1-isopropyl-5-(2-methoxyphenyl)-3,6-dimethyl-pyrazolo[4,3-b]pyridine]
14 |  |  | 64% | 637 nM | 336 nM |  |  |  | CCCn1ncc2nc(-c3cccnc3OCC)cc(N3CCCC3)c21 [Example 18, 5-(2-ethoxy-3-pyridyl)-1-propyl-7-pyrrolidin-1-yl-pyrazolo[4,3-b]pyridine]
15 |  |  |  | 1620 nM | 604 nM | 2140 nM |  |  | CC(C)n1ncc2nc(-c3cnn4ccccc34)cc(N[C@@H]3CCOC3)c21 [Example 35, 1-isopropyl-5-pyrazolo[1,5-a]pyridin-3-yl-N-[(3R)-tetrahydrofuran-3-yl]pyrazolo[4,3-b]pyridin-7-amine]
16 |  |  |  | 461 nM | 129 nM | 1820 nM |  |  | CCOc1ncccc1-c1cc(N2CCCC2)c2c(cnn2CC)n1 [Example 16, 5-(2-ethoxy-3-pyridyl)-1-ethyl-7-pyrrolidin-1-yl-pyrazolo[4,3-b]pyridine]
17 | 81% |  | 26% |  | 2140 nM |  |  |  | COc1cccnc1-c1cc(N[C@@H]2CCOC2)c2c(cnn2C(C)C)n1 [Example 40, 1-isopropyl-5-(3-methoxy-2-pyridyl)-N-[(3R)-tetrahydrofuran-3-yl]pyrazolo[4,3-b]pyridin-7-amine]
18 | 20% |  |  |  | 3250 nM | 3850 nM |  |  | COc1cnc(C)c(-c2cc(N[C@@H]3CCOC3)c3c(cnn3C(C)C)n2)c1 [Example 51, 1-isopropyl-5-(5-methoxy-2-methyl-3-pyridyl)-N-[(3R)-tetrahydrofuran-3-yl]pyrazolo[4,3-b]pyridin-7-amine]
19 |  |  |  |  | 550 nM |  | 27% | 29% | CCOc1ncccc1-c1cc(N2CCCC2)c2c(cnn2C2CCOC2)n1 (racemic) [Example 3, (±)-5-(2-ethoxy-3-pyridyl)-7-pyrrolidin-1-yl-1-tetrahydrofuran-3-yl-pyrazolo[4,3-b]pyridine]
20 |  |  |  | 70 nM | 11 nM | 106 nM |  |  | CCOc1ncccc1-c1cc(NCC2CCC(=O)N2C)c2c(n1)c(C)nn2C(C)C (racemic) [Example 67, (±)-5-[[[5-(2-ethoxy-3-pyridyl)-1-isopropyl-3-methyl-pyrazolo[4,3-b]pyridin-7-yl]amino]methyl]-1-methyl-pyrrolidin-2-one]
21 | 51% |  | 59% |  | 1520 nM |  |  |  | CCc1ncccc1-c1cc(N[C@@H]2CCOC2)c2c(cnn2C(C)C)n1 [Example 56, 5-(2-ethyl-3-pyridyl)-1-isopropyl-N-[(3R)-tetrahydrofuran-3-yl]pyrazolo[4,3-b]pyridin-7-amine]
22 |  |  |  | 96 nM | 34 nM | 213 nM |  |  | CCOc1ncccc1-c1ccn2c(C(C)C)nc(C)c2n1 [Example 72, 2-(2-ethoxy-3-pyridyl)-6-isopropyl-8-methyl-imidazo[1,5-a]pyrimidine]
23 |  |  | 72% | 2480 nM | 341 nM |  |  |  | COCc1cccc(-c2cc(N[C@@H]3CCOC3)c3c(cnn3C(C)C)n2)c1 [Example 45, 1-isopropyl-5-[3-(methoxymethyl)phenyl]-N-[(3R)-tetrahydrofuran-3-yl]pyrazolo[4,3-b]pyridin-7-amine]
24 |  |  |  |  | 447 nM |  | 47% | 20% | CCOc1ncccc1-c1cc(NC2CCOC2)c2c(cnn2C2COC2)n1 (racemic) [Example 5, (±)-5-(2-ethoxy-3-pyridyl)-1-(oxetan-3-yl)-N-tetrahydrofuran-3-yl-pyrazolo[4,3-b]pyridin-7-amine]
25 |  |  |  | 1090 nM | 640 nM | 3500 nM |  |  | CCOc1ncccc1-c1cc(N2CCCC2)c2c(cnn2C)n1 [Example 14, 5-(2-ethoxy-3-pyridyl)-1-methyl-7-pyrrolidin-1-yl-pyrazolo[4,3-b]pyridine]

Row | Structure (SMILES) | inhibition at 10 µM (PDE1A) | inhibition at 10 µM (PDE1B; @ 10 μM compound, read-out: PDE1 B, % inhibition @ 10 μM) | inhibition at 10 µM (PDE1C) | IC50 (PDE1A) | IC50 (PDE1B) | IC50 (PDE1C) | inhibition at 1 µM (PDE1A) | inhibition at 1 µM (PDE1C)
26 | CC(C)n1ncc2nc(-c3cccnc3OC(C)(C)C)cc(N[C@@H]3CCOC3)c21 [Example 36, 5-(2-tert-butoxy-3-pyridyl)-1-isopropyl-N-[(3R)-tetrahydrofuran-3-yl]pyrazolo[4,3-b]pyridin-7-amine] |  |  |  | 260 nM | 91 nM | 3230 nM |  | 
